Like-named read-outs stand apart in the source and are kept apart here.
Experiments:
CYP1A2 = target: T1, CYP1A2 (Homo sapiens, UniProt P05177); experiment: CYP450 inhibition, fluorescent substrate assay, CYP1A2; type: biochemical; details: substrate CEC 5 μM, read-out: 1A2-CEC % inh.
T1 construct: host or cells: E. coli
T1 sequence (P05177 1-516): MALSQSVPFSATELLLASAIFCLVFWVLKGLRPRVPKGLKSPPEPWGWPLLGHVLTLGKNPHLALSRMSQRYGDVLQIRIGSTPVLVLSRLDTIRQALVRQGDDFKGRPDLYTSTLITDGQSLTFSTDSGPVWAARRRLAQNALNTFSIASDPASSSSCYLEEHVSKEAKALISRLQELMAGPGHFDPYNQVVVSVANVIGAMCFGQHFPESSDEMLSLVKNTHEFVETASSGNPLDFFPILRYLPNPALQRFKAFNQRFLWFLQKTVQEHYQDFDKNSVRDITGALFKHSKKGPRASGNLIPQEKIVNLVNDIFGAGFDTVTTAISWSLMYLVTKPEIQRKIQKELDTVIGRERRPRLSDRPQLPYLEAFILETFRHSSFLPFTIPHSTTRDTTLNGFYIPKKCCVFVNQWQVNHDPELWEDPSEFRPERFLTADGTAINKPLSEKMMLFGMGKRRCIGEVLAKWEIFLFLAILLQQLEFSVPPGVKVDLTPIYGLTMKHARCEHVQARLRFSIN
Method: (§1) Assay 4: CYP450 Inhibition […] This fluorescent molecule was measured using a fluorescent plate reader (Victor2 (Wallac) or Fluoroskan (Labsystems)). Compounds inhibiting the enzymatic reaction will result in a decrease of fluorescent signal. CYP P450 enzymes were prepared in house or commercially bought and stored at −80° C. [table] The assay was performed in black 96 well Costar plates. Test compounds were added to a CYP P450 enzyme solution in the presence of an NADPH generating system. After 5 min of preincubation at 37° C., the freshly prepared, phosphate buffered (pH 7.4) substrate solution was added. Known CYP P450 inhibitors were used as positive controls, negative controls were run without CYP P450 enzyme. For final reaction mixture concentrations, see Table 6. […] Then, the reaction was stopped by the addition of 200 μl acetonitrile, and the fluorescent signal was detected. [table] […] Inhibition of TMC114 Metabolisation

[1] = test system: wild-type HIV-1 IIIB strain; experiment: Antiviral activity in MT4 LTR-EGFP cellular assay; type: cell-based; details: read-out: Antiviral Activity IIIB pEC50 (converted)
Method: (§2) Assay 1 &2: Antiviral Activity/Toxicity
The compounds of the present invention were tested for antiviral activity in a cellular assay, which was performed according to the following procedure.
The human T-cell line MT4 is engineered with Green Fluorescent Protein (GFP) and an HIV-specific promoter, HIV-1 long terminal repeat (LTR). This cell line is designated MT4 LTR-EGFP, and can be used for the in vitro evaluation of anti-HIV activity of investigational compounds. In HIV-1 infected cells, the Tat protein is produced which upregulates the LTR promotor and finally leads to stimulation of the GFP reporter production, allowing measuring ongoing HIV-infection fluorometrically.
(§3) The ratio of CC50 to EC50 is defined as the selectivity index (SI) and is an indication of the selectivity of the anti-HIV activity of the inhibitor. The ultimate monitoring of HIV-1 infection and cytotoxicity is done using a scanning microscope. Image analysis allows very sensitive detection of viral infection. Measurements are done before cell necrosis, which usually takes place about five days after infection, in particular measurements are performed three days after infection.
A pEC50 value corresponds to −log10(EC50). A pCC50 value corresponds to −log10(CC50).

CYP3A4 = target: T2, CYP3A4 (Homo sapiens, UniProt P08684); experiment: CYP450 inhibition, fluorescent substrate assay, CYP3A4; type: biochemical; details: for inhibition at 10 min, 10 μM: substrate DBF 1 μM, read-out: 3A4-DBF % inh.
T2 construct: host or cells: E. coli
T2 sequence (P08684 whole entry): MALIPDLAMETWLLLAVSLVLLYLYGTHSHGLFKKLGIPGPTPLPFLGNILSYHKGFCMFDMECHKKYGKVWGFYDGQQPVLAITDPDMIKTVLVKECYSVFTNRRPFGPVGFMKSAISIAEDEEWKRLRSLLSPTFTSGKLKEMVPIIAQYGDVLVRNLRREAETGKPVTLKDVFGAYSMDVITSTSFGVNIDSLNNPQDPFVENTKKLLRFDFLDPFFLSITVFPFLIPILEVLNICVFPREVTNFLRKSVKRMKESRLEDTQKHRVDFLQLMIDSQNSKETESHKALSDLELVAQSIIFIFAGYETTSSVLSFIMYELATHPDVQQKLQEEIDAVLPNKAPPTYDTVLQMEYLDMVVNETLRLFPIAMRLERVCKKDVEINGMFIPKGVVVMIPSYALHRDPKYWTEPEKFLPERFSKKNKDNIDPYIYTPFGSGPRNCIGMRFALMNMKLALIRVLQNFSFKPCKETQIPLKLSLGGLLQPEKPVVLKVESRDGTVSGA
Method: as §1

in vitro = in vitro ADME, human; details: pH 7.4
Excerpt: Assay 3: Metabolic Stability of Test Compounds (HLM15′)
Sub-cellular tissue preparations are made according to Gorrod et al. (Xenobiotica, 5, pp. 453-462 (1975)) by centrifugal separation after mechanical homogenization of tissue. Human liver tissue is rinsed in ice-cold 0.1 M Tris-HCl (pH 7.4) buffer to wash excess blood. Tissue is then blotted dry, weighed and chopped coarsely using surgical scissors. The tissue pieces are homogenized in 3 volumes of ice-cold 0.1 M phosphate buffer (pH 7.4) using either a Potter-S (Braun, Italy) equipped with a Teflon pestle or a Sorvall Omni-Mix homogenizer, for 7×10 sec. In both cases, the vessel is kept in/on ice during the homogenization process. Tissue homogenates are centrifuged at 9000×g for 20 min at 4° C. using a Sorvall centrifuge or Beckman Ultracentrifuge. The resulting supernatant can be stored at −80° C. and is designated ‘S9’. The S9 fraction is centrifuged at 100,000×g for 60 min at 4° C. using a Beckman ultracentrifuge. The resulting supernatant is carefully aspirated, aliquoted and designated ‘cytosol’. The pellet is re-suspended in 0.1 M phosphate buffer (pH 7.4) in a final volume of 1 ml per 0.5 g original tissue weight and designated ‘microsomes’. All sub-cellular fractions are aliquoted, immediately frozen in liquid nitrogen and stored at −80° C. until use.
Heat-inactivated (10 min at 95° C.) ‘S9’ or microsomes were used for blank experiments. Reaction mixtures were incubated at 37° C. for 5 min, after which the reaction was started by the addition of 0.8 mM β-NADP. The reaction was incubated for 0 or 15 min. Next, the reaction was stopped by addition of 2 volumes of DMSO (or acetonitrile). Samples were centrifuged (10 min, 900×g) and analyzed by LC-MS.

CYP2C9 = CYP2C9 (Homo sapiens, UniProt P11712); experiment: CYP450 inhibition, fluorescent substrate assay, CYP2C9; type: biochemical
CYP2C9, sequence (P11712 whole entry): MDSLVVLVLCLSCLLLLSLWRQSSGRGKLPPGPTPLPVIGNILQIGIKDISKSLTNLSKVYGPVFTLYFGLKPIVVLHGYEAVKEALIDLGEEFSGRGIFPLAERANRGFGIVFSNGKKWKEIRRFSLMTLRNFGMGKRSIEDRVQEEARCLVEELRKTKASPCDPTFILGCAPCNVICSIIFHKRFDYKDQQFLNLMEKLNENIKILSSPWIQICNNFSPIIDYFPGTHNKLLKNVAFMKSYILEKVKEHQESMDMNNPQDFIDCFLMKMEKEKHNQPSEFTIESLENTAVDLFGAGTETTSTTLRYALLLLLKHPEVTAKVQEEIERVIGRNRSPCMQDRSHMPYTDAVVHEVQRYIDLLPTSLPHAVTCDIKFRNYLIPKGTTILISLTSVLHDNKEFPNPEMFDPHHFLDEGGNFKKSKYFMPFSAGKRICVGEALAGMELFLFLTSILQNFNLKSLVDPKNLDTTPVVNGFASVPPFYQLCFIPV
Method: as §1

[2] = Cytotoxicity in mock-infected MT4 CMV-EGFP cells; type: cell-based; details: human, pCC50 = -log10(CC50), read-out: Toxicity MT4 pCC50 (converted)
Excerpt: as §2
Analogously, MT4 cells are engineered with GFP and the constitutional cytomegalovirus (CMV) promotor. This cell line is designated MT4 CMV-EGFP, and can be used for the in vitro evaluation of cytotoxicity of investigational compounds. In this cell line, GFP levels are comparably to those of infected MT4 LTR-EGFP cells. Cytotoxic investigational compounds reduce GFP levels of mock-infected MT4 CMV-EGFP cells.
as §3, with “Effective concentration values such as 50% effective concentration (EC50) can be determined and are usually expressed in μM. An EC50 value is defined as the concentration of test compound that reduces the fluorescence of HIV-infected cells by 50%. The 50% cytotoxic concentration (CC50 in μM) is defined as the concentration of test compound that reduces fluorescence of the mock-infected cells by 50%. The ratio” for “The ratio”
Table 2 lists pEC50 values against the wild-type HIV-1 IIIB strain as well as pCC50 values for a selected number of compounds of the invention. A pEC50 value corresponds to −log10(EC50). A pCC50 value corresponds to −log10(CC50).

CYP2C19 = target: T3, CYP2C19 (Homo sapiens, UniProt P33261); experiment: CYP450 inhibition, fluorescent substrate assay, CYP2C19; type: biochemical; details: substrate CEC 25 μM, read-out: 2C19-CEC % inh.
T3 construct: host or cells: E. coli
T3 sequence (P33261 whole entry): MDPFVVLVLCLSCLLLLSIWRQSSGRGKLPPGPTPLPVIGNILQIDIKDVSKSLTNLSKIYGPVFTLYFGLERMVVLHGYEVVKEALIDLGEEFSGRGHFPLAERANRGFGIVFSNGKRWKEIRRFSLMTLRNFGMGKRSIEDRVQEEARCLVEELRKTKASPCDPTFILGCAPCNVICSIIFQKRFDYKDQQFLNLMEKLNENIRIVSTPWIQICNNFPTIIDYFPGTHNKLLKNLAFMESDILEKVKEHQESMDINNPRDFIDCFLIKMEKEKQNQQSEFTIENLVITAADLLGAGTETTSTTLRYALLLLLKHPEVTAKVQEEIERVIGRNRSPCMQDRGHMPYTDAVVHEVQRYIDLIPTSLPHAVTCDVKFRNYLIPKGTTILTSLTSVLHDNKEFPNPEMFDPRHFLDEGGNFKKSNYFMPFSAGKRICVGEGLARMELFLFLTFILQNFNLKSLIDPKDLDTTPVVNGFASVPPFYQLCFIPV
Method: as §1

CYP2D6 = target: T4, CYP2D6 (Homo sapiens, UniProt P10635); experiment: CYP450 inhibition, fluorescent substrate assay, CYP2D6; type: biochemical; details: substrate AMMC 3 μM, read-out: 2D6-AMMC % inh.
T4 construct: host or cells: E. coli
T4 sequence (P10635 whole entry): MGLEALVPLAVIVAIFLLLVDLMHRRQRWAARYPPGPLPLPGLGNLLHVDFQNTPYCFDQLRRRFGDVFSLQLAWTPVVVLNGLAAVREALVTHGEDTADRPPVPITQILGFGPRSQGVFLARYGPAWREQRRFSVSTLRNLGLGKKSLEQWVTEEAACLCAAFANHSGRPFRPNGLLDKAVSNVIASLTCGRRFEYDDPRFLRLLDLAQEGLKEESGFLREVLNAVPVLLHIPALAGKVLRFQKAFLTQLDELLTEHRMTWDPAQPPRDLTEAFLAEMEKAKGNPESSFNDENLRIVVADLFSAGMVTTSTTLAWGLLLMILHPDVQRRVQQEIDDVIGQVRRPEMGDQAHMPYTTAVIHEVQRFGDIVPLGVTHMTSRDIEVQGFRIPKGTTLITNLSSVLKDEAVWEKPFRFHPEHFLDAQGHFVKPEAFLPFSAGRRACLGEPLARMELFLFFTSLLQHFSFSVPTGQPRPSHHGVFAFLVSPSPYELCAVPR
Method: as §1

[3] = E. coli expressed CYP1A2, pH 7.4, probe CEC (5 μM), 10 μM test compound
[4] = Human immunodeficiency virus 1, IIIB, 72 h
[5] = E. coli expressed CYP3A4, pH 7.4, probe BFC (150 μM), 10 μM test compound, substrate BFC 150 μM, read-out: 3A4-BFC % inh.
[6] = E. coli expressed CYP3A4, pH 7.4, probe BQ (60 μM), 10 μM test compound, substrate BQ 60 μM, read-out: 3A4-BQ % inh.
[7] = E. coli expressed CYP3A4, pH 7.4, probe DBF (1 μM), 10 μM test compound
[8] = human liver microsomes 1 mg/ml, 5 μM test compound, 15 min, 37° C., read-out: % recovery HLM15
[9] = pH 7.4, 10 μM test compound, substrate MFC 200 μM, 30 min, read-out: 2C9-MFC % inh.
[10] = E. coli expressed CYP2C19, pH 7.4, probe CEC (25 μM), 10 μM test compound
[11] = E. coli expressed CYP2D6, pH 7.4, probe AMMC (3 μM), 10 μM test compound
[12] = Human immunodeficiency virus 1, 72 h, wild-type HIV-1 IIIB, MT4 LTR-EGFP cells, three days after infection, pEC50 = -log10(EC50)

| SMILES | inhibition at 15 min, 10 μM (CYP1A2; [3]) [%] | EC50 [1, 4] [µM] | inhibition at 30 min, 10 μM (CYP3A4; [5]) [%] | inhibition at 30 min, 10 μM (CYP3A4; [6]) [%] | inhibition at 10 min, 10 μM (CYP3A4; [7]) [%] | recovery at 15 min, 5 μM (in vitro; [8]) [%] | inhibition at 30 min, 10 μM (CYP2C9; [9]) [%] | CC50 at 3 days [2] [µM] | inhibition at 30 min, 10 μM (CYP2C19; [10]) [%] | inhibition at 45 min, 10 μM (CYP2D6; [11]) [%] | EC50 [1, 12] [µM] | recovery at 15 min, 5 μM (in vitro; human) [%] | inhibition at 30 min, 10 μM (CYP2C9; pH 7.4) [%] | inhibition at 15 min, 10 μM (CYP1A2; pH 7.4, 10 μM test compound) [%] | inhibition at 30 min, 10 μM (CYP3A4; pH 7.4, 10 μM test compound, substrate BFC 150 μM, read-out: 3A4-BFC % inh.) [%] | inhibition at 30 min, 10 μM (CYP3A4; pH 7.4, 10 μM test compound, substrate BQ 60 μM, read-out: 3A4-BQ % inh.) [%] | inhibition at 10 min, 10 μM (CYP3A4; pH 7.4, 10 μM test compound) [%] | inhibition at 30 min, 10 μM (CYP2C19; pH 7.4, 10 μM test compound) [%] | inhibition at 45 min, 10 μM (CYP2D6; pH 7.4, 10 μM test compound) [%] |
| --- | --- | --- | --- | --- | --- | --- | --- | --- | --- | --- | --- | --- | --- | --- | --- | --- | --- | --- | --- |
| CC(C)CN(C[C@@H](O)[C@H](Cc1ccccc1)NC(=O)OCc1cncs1)C(=O)c1cccc(Br)c1 [Compound C17] | 55 | 41.7 | 57 | 81 | 93 | 68 | 98 | 36.3 | 87 | 46 |  |  |  |  |  |  |  |  |  |
| CC(C)CN(C[C@@H](O)[C@H](Cc1ccccc1)NC(=O)OCc1cncs1)C(=O)c1ccc(Br)cc1 [Compound C18] | 63 | 38.9 | 83 | 84 | 94 | 57 | 98 | 41.7 | 93 | 64 |  |  |  |  |  |  |  |  |  |
| CC(C)CN(C[C@@H](O)[C@H](Cc1ccccc1)NC(=O)OCc1cccnc1)C(=O)c1ccncc1 [Compound C20] | 6 |  | 88 | 66 | 85 |  |  | > 100 | 41 | 13 | > 100 | 37 | 63 |  |  |  |  |  |  |
| CC(C)CN(C[C@@H](O)[C@H](Cc1ccccc1)NC(=O)OCc1cncs1)C(=O)c1ccco1 [Compound C21] |  | > 100 |  |  |  | 62 | 95 | > 100 |  |  |  |  |  | 43 | 87 | 81 | 95 | 75 | 62 |
| CC(C)(C)CN(C[C@@H](O)[C@H](Cc1ccccc1)NC(=O)OCc1cncs1)C(=O)c1ccncc1 [Compound C22] | 0 |  | 93 | 74 | 89 |  |  | > 100 | 60 | 62 | > 100 | 77 | 69 |  |  |  |  |  |  |
| CC(C)CN(C[C@@H](O)[C@H](Cc1ccccc1)NC(=O)OCc1cncs1)C(=O)C1CCC(F)(F)CC1 [Compound C23] | 22 |  | 94 | 73 | 92 |  |  | 55 | 77 | 65 | 51.3 | 72 | 89 |  |  |  |  |  |  |
| CC(C)CN(C[C@@H](O)[C@H](Cc1ccccc1)NC(=O)OCc1cncs1)C(=O)CCc1cncs1 [Compound C24] | 13 |  | 101 | 82 | 89 |  |  | > 100 | 86 | 96 | 97.7 | 56 | 92 |  |  |  |  |  |  |
| CC(C)CN(C[C@@H](O)[C@H](Cc1ccccc1)NC(=O)OCc1cncs1)C(=O)OCc1cncs1 [Compound C25] | 25 |  | 100 | 79 | 89 |  |  | 77.6 | 97 | 91 | 69.2 | 63 | 95 |  |  |  |  |  |  |
